Results from ChEMBL document CHEMBL1201862, “PubChem BioAssay data set” (2004).
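96-well plates; 48 h exposure; 5 concentrations. Endpoints by linear interpolation between flanking doses. Not reached: highest tested concentration assigned. The concentration for 50% growth inhibition is given as GI50.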 The source made the active and inactive calls. Cut-off read from the data, not from the text of the source: active = GI50 up to about 1.1 µM and inactive = higher.

Tests used:
Assay in all cases: growth of human tumour cells (NCI), 48 h
[1] = system: NCI-H23
[2] = system: ACHN
[3] = system: IGROV-1
[4] = system: SK-MEL-2
[5] = system: MDA-MB-231
[6] = system: K562
[7] = system: 786-0
[8] = system: HT-29
[9] = system: PC-3
[10] = system: OVCAR-3
[11] = system: NCI/ADR-RES
[12] = system: RPMI-8226
[13] = system: TK-10
[14] = system: RXF 393
[15] = system: A498
[16] = system: CAKI-1
[17] = system: MOLT-4
[18] = system: SR
[19] = system: LOX IMVI
[20] = system: M14
[21] = system: SF-539
[22] = system: HOP-92
[23] = system: MCF7
[24] = system: MDA-MB-435
[25] = system: COLO 205
[26] = system: NCI-H226
[27] = system: Malme-3M
[28] = system: NCI-H522
[29] = system: UO-31
[30] = system: EKVX
[31] = system: CCRF-CEM
[32] = system: A549
[33] = system: SW-620
[34] = system: U-251
[35] = system: SK-MEL-5
[36] = system: Hs-578T
[37] = system: OVCAR-4
[38] = system: BT-549
[39] = system: OVCAR-5
[40] = system: UACC-62
[41] = system: HOP-62
[42] = system: SF-295
[43] = system: HCT-116
[44] = system: NCI-H460
[45] = system: HCC 2998
[46] = system: SK-MEL-28
[47] = system: DU-145
[48] = system: MDA-N
[49] = system: OVCAR-8
[50] = system: KM12
[51] = system: HL-60
[52] = system: UACC-257
[53] = system: SF-268
[54] = system: SNB-19
[55] = system: HCT-15
[56] = system: SN12C
[57] = system: SNB-75
[58] = system: T47D

Compound: CCOC(=O)c1ncn(CCc2ccc(Cl)cc2)c1C
- GI50 [1]: > 100 µM (inactive)
- GI50 [2]: > 100 µM (inactive)
- GI50 [3]: > 100 µM (inactive)
- GI50 [4]: > 100 µM (inactive)
- GI50 [5]: > 100 µM (inactive)
- GI50 [6]: > 100 µM (inactive)
- GI50 [7]: > 100 µM (inactive)
- GI50 [8]: > 100 µM (inactive)
- GI50 [9]: > 100 µM (inactive)
- GI50 [10]: > 100 µM (inactive)
- GI50 [11]: 70.8 µM (inactive)
- GI50 [12]: 62.7 µM (inactive)
- GI50 [13]: > 100 µM (inactive)
- GI50 [14]: > 100 µM (inactive)
- GI50 [15]: > 100 µM (inactive)
- GI50 [16]: 80.2 µM (inactive)
- GI50 [17]: > 100 µM (inactive)
- GI50 [18]: 68.2 µM (inactive)
- GI50 [19]: > 100 µM (inactive)
- GI50 [20]: 26.3 µM (inactive)
- GI50 [21]: > 100 µM (inactive)
- GI50 [22]: > 100 µM (inactive)
- GI50 [23]: > 100 µM (inactive)
- GI50 [24]: > 100 µM (inactive)
- GI50 [25]: > 100 µM (inactive)
- GI50 [26]: > 100 µM (inactive)
- GI50 [27]: > 100 µM (inactive)
- GI50 [28]: 34.4 µM (inactive)
- GI50 [29]: 34.5 µM (inactive)
- GI50 [30]: > 100 µM (inactive)
- GI50 [31]: > 100 µM (inactive)
- GI50 [32]: > 100 µM (inactive)
- GI50 [33]: > 100 µM (inactive)
- GI50 [34]: > 100 µM (inactive)
- GI50 [35]: 85.9 µM (inactive)
- GI50 [36]: > 100 µM (inactive)
- GI50 [37]: 56.6 µM (inactive)
- GI50 [38]: > 100 µM (inactive)
- GI50 [39]: > 100 µM (inactive)
- GI50 [40]: 42.4 µM (inactive)
- GI50 [41]: > 100 µM (inactive)
- GI50 [42]: 70.8 µM (inactive)
- GI50 [43]: > 100 µM (inactive)
- GI50 [44]: > 100 µM (inactive)
- GI50 [45]: > 100 µM (inactive)
- GI50 [46]: > 100 µM (inactive)
- GI50 [47]: > 100 µM (inactive)
- GI50 [48]: 80.5 µM (inactive)
- GI50 [49]: > 100 µM (inactive)
- GI50 [50]: > 100 µM (inactive)
- GI50 [51]: > 100 µM (inactive)
- GI50 [52]: > 100 µM (inactive)
- GI50 [53]: 92.9 µM (inactive)
- GI50 [54]: > 100 µM (inactive)
- GI50 [55]: > 100 µM
- GI50 [56]: > 100 µM (inactive)

Compound: CCN(CC)CC1CN=C(N)O1 (configuration not stated)
- GI50 [1]: > 100 µM (inactive)
- GI50 [2]: > 100 µM (inactive)
- GI50 [3]: > 100 µM (inactive)
- GI50 [4]: > 100 µM (inactive)
- GI50 [5]: > 100 µM (inactive)
- GI50 [6]: > 100 µM (inactive)
- GI50 [57]: > 100 µM (inactive)
- GI50 [7]: > 100 µM (inactive)
- GI50 [9]: > 100 µM (inactive)
- GI50 [10]: > 100 µM (inactive)
- GI50 [11]: > 100 µM (inactive)
- GI50 [12]: > 100 µM (inactive)
- GI50 [14]: > 100 µM (inactive)
- GI50 [15]: > 100 µM (inactive)
- GI50 [16]: > 100 µM (inactive)
- GI50 [17]: > 100 µM (inactive)
- GI50 [18]: > 100 µM (inactive)
- GI50 [19]: > 100 µM (inactive)
- GI50 [20]: > 100 µM (inactive)
- GI50 [21]: > 100 µM (inactive)
- GI50 [22]: > 100 µM (inactive)
- GI50 [23]: > 100 µM (inactive)
- GI50 [24]: > 100 µM (inactive)
- GI50 [25]: > 100 µM (inactive)
- GI50 [26]: > 100 µM (inactive)
- GI50 [29]: > 100 µM (inactive)
- GI50 [30]: > 100 µM (inactive)
- GI50 [31]: > 100 µM (inactive)
- GI50 [32]: > 100 µM (inactive)
- GI50 [33]: > 100 µM (inactive)
- GI50 [34]: > 100 µM (inactive)
- GI50 [35]: > 100 µM (inactive)
- GI50 [58]: > 100 µM (inactive)
- GI50 [37]: > 100 µM (inactive)
- GI50 [38]: > 100 µM (inactive)
- GI50 [39]: > 100 µM (inactive)
- GI50 [40]: > 100 µM (inactive)
- GI50 [41]: > 100 µM (inactive)
- GI50 [42]: > 100 µM (inactive)
- GI50 [43]: > 100 µM (inactive)
- GI50 [44]: > 100 µM (inactive)
- GI50 [45]: > 100 µM (inactive)
- GI50 [46]: > 100 µM (inactive)
- GI50 [47]: > 100 µM (inactive)
- GI50 [48]: > 100 µM (inactive)
- GI50 [49]: > 100 µM (inactive)
- GI50 [50]: > 100 µM (inactive)
- GI50 [52]: > 100 µM (inactive)
- GI50 [54]: > 100 µM (inactive)
- GI50 [55]: > 100 µM
- GI50 [56]: > 100 µM (inactive)
